Measured values reported in publication PMC5527305, “Prevention of Ophthalmia Neonatorum Caused by Neisseria gonorrhoeae Using a Fatty Acid-Based Formulation” (mBio, 2017).
≈ marks a conversion by molar mass, not a printed value. Entries after “also recorded” stand apart in the source; their conditions may differ. Read-outs that look alike come from different tables or passages of the source.

Assays:
[1] = test system: N. gonorrhoeae strain NCCP11945; experiment: Growth inhibition screen on GC solid media containing 1 mM candidate; format: cell-based, Neisseria gonorrhoeae; settings: 1 mM candidate in GC agar media; Yes = strain NCCP11945 did not grow
Description: (§1) To find potential candidates, 37 organic acids, esters, and salts were tested in a two-tiered screening process. These candidates were chosen based on the carbon chain lengths of the fatty acids, the presence or absence of saturation, and modifications to represent a diverse selection of organic acid candidates. The first screen aimed to determine the ability of each compound to inhibit the growth of N. gonorrhoeae strain NCCP11945 at 1 mM in GC solid media (Table 1). This strain was chosen due to its relatively recent isolation, its antibiotic resistance profile, and the availability of a complete genome sequence. Those candidates able to inhibit the growth of N. gonorrhoeae strain NCCP11945 were investigated in a second assay. The second assay tested the ability of each compound to cause at least a 4-log reduction in viable bacteria at 1 mM with a 2-min exposure time (Table 1).
(§2) The well-characterized N. gonorrhoeae NCCP11945 strain ([36]) was used in the screening stage. Eight isolates obtained from Public Health England, representing circulating isolates from various European locations, were used in the log reduction assays. All isolates were cultured for 24 h prior to testing by plating on GC solid medium (Oxoid Limited, Hampshire, United Kingdom) with Kellogg supplements and incubation at 37°C and 5% CO2 ([37]).

[2] = test system: N. gonorrhoeae strain NCCP11945; experiment: Log reduction assay in GC broth, 2-min exposure; format: cell-based, Neisseria gonorrhoeae; settings: for Log reduction at 1 mM (calculated log reduction in viable bacteria) / log reduction at 1000 µM: maximum score 6 = all cells killed; for log reduction at 1000 µM: Neisseria gonorrhoeae, NCCP11945, 2 min, 1 mM, read-out: Log reduction at 1 mM (calculated log reduction in viable bacteria)
Description: as §1
(§3) Log reductions were done as described by Bergsson and coworkers ([18]). Briefly, cells were suspended in GC broth (18 g/liter GC base [Oxoid, Limited] with added defined supplements) to an optical density at 520 nm of 0.3, which is approximately equivalent to 10^7 to 10^8 cells per ml ([38]). […] The contents of the tubes were then mixed at room temperature for 2 min and immediately diluted in a 10-fold dilution series to 10^−4. The dilutions were plated by spreading 10 µl on a quarter of a plate; a 100-µl neat solution was also plated. Plates were then incubated at 37°C for 48 h, with all samples plated in duplicate. […] Additional testing at lower concentrations was also done on the eight clinical isolates of European origin.

[3] = test system: gonococcal cells (isolate NCCP 11945); experiment: Log reduction in artificial tear fluid with or without calcium chloride; format: cell-based, Neisseria gonorrhoeae; settings: for Reduction in bacterial cell number in artificial tear fluid containing calcium chloride / Antigonococcal properties in tear fluid made without calcium chloride: 1 mM candidate, 2 min; for Reduction in bacterial cell number in artificial tear fluid containing calcium chloride: with calcium; for Effect of calcium in artificial tear fluid on antimicrobial effect: calcium 1 mM, Fig. 2
Description: The antigonococcal properties of the seven selected fatty acids were tested in artificial tear fluid, which contained calcium chloride. The addition of 1 mM lauric acid, tridecanoic acid, or sodium dodecanoate gave no reduction in bacterial cell number after exposure, in contrast to the results seen when they were tested in culture medium (Fig. 2). […] This was most likely due to the negative effect of calcium on the aqueous solubility of these candidates.
Artificial tear fluid was made as described by Mirejovsky and others ([39]) with or without calcium chloride. […] As with the previous log reductions, 10^7 gonococcal cells (isolate NCCP 11945) were suspended in GC broth. The cell suspension was centrifuged to remove the culture medium, and the bacteria were resuspended in the tear fluid. This was then added to the concentrated organic acid candidates. The cells were then enumerated again after 2 min of exposure to estimate any reduction in cell number due to the exposure to the organic acid.

[4] = test system: nine gonococcal isolates (strain NCCP11945 and eight isolates from Public Health England); experiment: Minimum bactericidal concentration by log reduction against nine gonococcal isolates; format: cell-based, Neisseria gonorrhoeae; settings: for Killing of all gonococcal cells for all isolates: 1 mM; for MBC: lowest concentration giving mean log reduction above 4 from a 2-min exposure
Text: The seven candidates were further tested against nine gonococcal isolates, including strain NCCP11945 and eight isolates from Public Health England, to find their minimal bactericidal concentration (MBC). This was defined as the lowest concentration tested to give an average 4-log10 reduction in bacterial count after a 2-min exposure. […] Any candidate that killed all gonococcal cells in the cell suspension was given a log reduction score of six.
as §2, §3

bovine RBCs = experiment: Red blood cell (RBC) lysis assay; format: cell-based
Description: Whole bovine blood was obtained from a local slaughter house (ABP), adding 90 ml blood to 10 ml 110 mM trisodium citrate anticoagulant. RBCs were isolated the same day. The RBCs were washed by three repeats of centrifugation (1,500 × g for 10 min) and resuspension in phosphate-buffered saline (PBS) with 10 mM glucose (PBSG). Testing was done following the guidelines of the European Union Reference Laboratory for alternatives to animal testing (EURL-ECVAM) ([22]). The organic acids were solubilized in dimethyl sulfoxide (DMSO) and diluted to a maximum DMSO concentration of 10%. In a 2-ml centrifuge tube, 750 µl of the sample was added to 250 µl RBCs. Controls used in the assay were a complete lysis control (deionized water) and a fragility control (PBSG–10% DMSO). Samples were shaken at room temperature for 1 h and then centrifuged at 14,000 × g for 2 min. An aliquot of 750 µl of the supernatant was taken and its absorbance at 451 nm measured.

bovine cornea = experiment: Bovine corneal opacity and permeability (BCOP) test
Description: Bovine eyes were collected from a local slaughter house (ABP, Guildford, Surrey, United Kingdom) and were transported in cold saline solution for testing at the laboratory. Each eye was first visually examined for signs of damage before use. The test was conducted as detailed by Abdelkader and coworkers ([21]). The exposure time of the test substances was 30 s. The selected bactericidal compounds were tested at 1 mM in saline solution, with a corresponding vehicle control (1% ethanol–saline solution) also performed. […] The test area of the cornea was then washed with 10 ml saline solution. Corneal damage to the test area was assessed by fluorescein staining and examination under a cobalt blue filter. Pathological scoring based on opacity, epithelial integrity, and epithelial detachment was done in accordance with previous publications ([19]). Each of the seven lead candidates was tested in triplicate, and each test was performed on a separate day using a different batch of eyeballs. Corneal histology was done as outlined by Abdelkader and coworkers ([21]) by evaluating the damage to the epithelial layer and stroma of the cornea after hematoxylin and eosin staining.

[5] = Neisseria gonorrhoeae, 2 min, read-out: MBC

With CCCCCCCCCCCCCCC(=O)O [Pentadecylic acid] the Growth inhibition [1] was “Yes”, the “Log reduction at 1 mM: at least a 4-log reduction in viable bacteria (Yes/No)” value (“Log reduction at 1 mM … (Yes/No)” for short) [2] was “No” and the “Log reduction at 1 mM (calculated log reduction in viable bacteria)” value [2] was 0.5 log10.

For CCCCCC[C@@H](O)C/C=C\CCCCCCCC(=O)O [Ricinoleic acid], the Growth inhibition [1] was “Yes”, the “Log reduction at 1 mM … (Yes/No)” value [2] was “No” and the “Log reduction at 1 mM (calculated log reduction in viable bacteria)” value [2] was 3.5 log10.

For CCCCCCCCCCCC(=O)O [Lauric acid], the “Reduction in bacterial cell number in artificial tear fluid containing calcium chloride” value [3] was “no reduction”, the “Antigonococcal properties in tear fluid made without calcium chloride” value [3] was “completely restored” and the “Effect of calcium in artificial tear fluid on antimicrobial effect” value (shortened to “Effect of calcium”) [3] was “inactivated”. For the same molecule, the “Killing of all gonococcal cells for all isolates” value (“Killing of all gonococcal cells” for short) ([4]; 2 min) was “killed all gonococcal cells for all isolates”, the MBC [4] was 0.75 mM (≈ 150 µg/mL) and the Growth inhibition [1] was “Yes”. The “H50 concentration relative to MBC” value (bovine RBCs) was “greater than their MBCs”, the “Log reduction at 1 mM … (Yes/No)” value [2] was “Yes” and the “Log reduction at 1 mM (calculated log reduction in viable bacteria)” value [2] was greater than 6 log10.

For CCCCCCCCCCC(=O)O [Undecanoic acid], the Growth inhibition [1] was “Yes”, the “Log reduction at 1 mM … (Yes/No)” value [2] was “No” and the log reduction at 1000 µM [2] was 0.2.

CCCCCCCC/C=C\CCCCCCCC(=O)O [Oleic acid] was tested, and the Growth inhibition [1] was “Yes”, the “Log reduction at 1 mM … (Yes/No)” value [2] was “No” and the log reduction at 1000 µM [2] was 1.

For CCCCCCCC(=O)O [Caprylic/octanoic acid], the Growth inhibition [1] was “No”.

CCCCC/C=C\C/C=C\C/C=C\C/C=C\CCCC(=O)O [Arachidonic acid] was tested, and the Growth inhibition [1] was “Yes”.

With CCCCCCCCCCCCCCCCCC(=O)O [Stearic acid] the Growth inhibition [1] was “No”.

CCCCCCCCCCCCCC(=O)OC(C)C [Isopropyl myristate] was tested, and the Growth inhibition [1] was “No”.

CCCCCCCCCCCCCCCCC(=O)O [Heptadecylic acid] was tested, and the Growth inhibition [1] was “No”.

In the case of O=C(O)CCCCCCCCC(=O)O [Sebacic acid], the Growth inhibition [1] is reported as “No”.

In the case of C/C=C/C=C/C(=O)O [Sorbic acid], the Growth inhibition [1] is reported as “No”.

O=C(O)CCCCCC(=O)O [Pimelic acid] was tested, and the Growth inhibition [1] was “No”.

With CCCCCCCCCCCCCCCC(=O)OC(C)C [Isopropyl palmitate] the Growth inhibition [1] was “No”.

CCCCCCCCCCCCCC(=O)[O-].[Na+] [Sodium myristate] was tested, and the Growth inhibition [1] was “Yes”, the “Log reduction at 1 mM … (Yes/No)” value [2] was “No” and the “Log reduction at 1 mM (calculated log reduction in viable bacteria)” value [2] was 0.5 log10.

With O=C(O)CCCCCCCC(=O)O [Azelaic acid] the Growth inhibition [1] was “No”.

For CCCCC/C=C\C/C=C\CCCCCCCC(=O)O [Linoleic acid], the Growth inhibition [1] was “Yes”, the “Log reduction at 1 mM … (Yes/No)” value [2] was “No” and the log reduction at 1000 µM [2] was 1.6.

CCCCCCCCCCCCC(=O)O [Tridecanoic acid] was tested, and the “Reduction in bacterial cell number in artificial tear fluid containing calcium chloride” value [3] was “no reduction”, the “Antigonococcal properties in tear fluid made without calcium chloride” value [3] was “completely restored” and the “Effect of calcium” value [3] was “inactivated”. The “Killing of all gonococcal cells” value ([4]; 2 min) was “did not”, the MBC [4, 5] was 0.75 mM (≈ 161 µg/mL) and the Growth inhibition [1] was “Yes”. For the same molecule, the “H50 concentration relative to MBC” value (bovine RBCs) was “greater than their MBCs”, the “RBC lysis (hemolysis)” value (bovine RBCs; 1 h incubation, bovine RBCs) was “did not lyse RBCs at any concentration investigated; also recorded: did not cause any hemolysis” and the “Log reduction at 1 mM … (Yes/No)” value [2] was “Yes”. It also gave a log reduction at 1000 µM [2] greater than 6.

With CCCCCCCCCCCCCC(=O)O [Myristic acid] the Growth inhibition [1] was “Yes”, the “Log reduction at 1 mM … (Yes/No)” value [2] was “No” and the log reduction at 1000 µM [2] was 1.5.

With CCCCCCCCCC(=O)O [Capric acid/decanoic acid] the Growth inhibition [1] was “No”.

With CCCCCC/C=C\CCCCCCCC(=O)O [Palmitoleic acid] the “Killing of all gonococcal cells” value ([4]; 2 min) was “did not”, the MBC [4, 5] was 0.5 mM (≈ 127 µg/mL) and the Growth inhibition [1] was “Yes”. The “H50 concentration relative to MBC” value (bovine RBCs; H50 = concentration to lyse 50% of RBCs, MBC from Table 1) was “lower than their minimum bactericidal concentration”, the “Log reduction at 1 mM … (Yes/No)” value [2] was “Yes” and the log reduction at 1000 µM [2] was greater than 6.

With O=C(O)CCCCCCC(=O)O [Suberic acid] the Growth inhibition [1] was “No”.

CCCCCCCCCCCCCC(=O)OCC(O)CO (stereo not drawn) [Monomyristin] was tested, and the Growth inhibition [1] was “Yes”, the “Log reduction at 1 mM … (Yes/No)” value [2] was “No” and the “Log reduction at 1 mM (calculated log reduction in viable bacteria)” value [2] was 0.6 log10.

For O=C(O)CCC(=O)O [Succinic acid], the Growth inhibition [1] was “No”.

With CCCCCCCCCCCCCCCC(=O)O [Palmitic acid] the Growth inhibition [1] was “No”.

CCCCCCCC(=O)OCC(O)CO (racemic) [1-octanoyl-rac-glycerol] was tested, and the Growth inhibition [1] was “Yes”, the “Log reduction at 1 mM … (Yes/No)” value [2] was “No” and the log reduction at 1000 µM [2] was 0.

In the case of CCCCCCCC/C=C\CCCCCCCCCCCC(=O)O [Erucic acid], the Growth inhibition [1] is reported as “Yes”, the “Log reduction at 1 mM … (Yes/No)” value [2] is reported as “No” and the log reduction at 1000 µM [2] is reported as 0.

With CCCCCCCCCCCC(=O)[O-].[Na+] [Sodium dodecanoate] the “Reduction in bacterial cell number in artificial tear fluid containing calcium chloride” value [3] was “no reduction”, the “Antigonococcal properties in tear fluid made without calcium chloride” value [3] was “completely restored” and the “Effect of calcium” value [3] was “inactivated”. For the same molecule, the “Killing of all gonococcal cells” value ([4]; 2 min) was “killed all gonococcal cells for all isolates”, the MBC [4] was 0.75 mM and the Growth inhibition [1] was “Yes”. For the same molecule, the “Mean cumulative BCOP score” value (bovine cornea; 1 mM in saline solution, 30 s exposure, triplicate) was “lower than 0.5”, the “Fluorescein staining of cornea” value (bovine cornea; 1 mM, around rubber application ring) was “any sign of fluorescein staining” and the BCOP irritancy classification (bovine cornea; candidates 1 mM in saline, controls 0.5 M NaOH, 100% acetone, 30 s exposure) was “nonirritants”. The “Log reduction at 1 mM … (Yes/No)” value [2] was “Yes” and the “Log reduction at 1 mM (calculated log reduction in viable bacteria)” value [2] was greater than 6 log10.

For O=C(O)CCCCC(=O)O [Adipic acid], the Growth inhibition [1] was “No”.

For CCCCCCCC/C=C/CCCCCCCC(=O)O [Elaidic acid], the Growth inhibition [1] was “Yes”, the “Log reduction at 1 mM … (Yes/No)” value [2] was “No” and the log reduction at 1000 µM [2] was 0.5.
